Paper PMC9828099, “Aromatic disulfides as potential inhibitors against interaction between deaminase APOBEC3G and HIV infectivity factor” (Acta Biochimica et Biophysica Sinica, 2022)

Experiments:
Vif = conditions: fluorescent intensity of 293T cells; read-out: IC50, inhibition of Vif activity; cited from earlier work
[1] = molecular target: full-length APOBEC3G (A3G-FL) (UniProt Q9HC16); experiment: SPR
HIV-1 = conditions: MT4 and MAGI cells; cited from earlier work
[2] = tested on: interaction between A3G and Vif; parameters: method as in PMID 25724652; conditions: read-out: IC50, block of interaction between A3G and Vif; cited from earlier work
rVif = molecular target: T1, rVif (Human immunodeficiency virus type 1 group M subtype B, UniProt P12504); type: binding, HIV-1; conditions: SPR 1st round screening, small molecules at 500 μM
T1 construct: The cDNAs of full-length Vif (residues 1–192) was sub-cloned into the vector pET28a; made in house
T1 sequence (P12504 whole entry, the tested form may be a part): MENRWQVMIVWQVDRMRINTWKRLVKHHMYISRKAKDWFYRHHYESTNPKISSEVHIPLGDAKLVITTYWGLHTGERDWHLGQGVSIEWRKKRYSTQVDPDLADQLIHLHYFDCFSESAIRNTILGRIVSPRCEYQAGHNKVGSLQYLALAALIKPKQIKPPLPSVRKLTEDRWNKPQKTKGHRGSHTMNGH
Description: (§1) Small molecules in the concentration of 500 μM were injected at 30 μL/min. The contact time is 100 s and dissociation time is 120 s. The chip was regenerated by glycine (pH 1.5) at a flow rate of 30 μL/min (30 s contact time). Then small molecules with high RU were selected to perform the 2 ^nd round screening. […] The data analyses were performed by BIAcore Evaluation.

A3G-sNTD = molecular target: T2, A3G-sNTD (Homo sapiens, UniProt Q9HC16); experiment: SPR binding of small molecules to A3G-sNTD; conditions: read-out: KD, binding affinity to A3G-sNTD
T2 sequence (Q9HC16 1-196): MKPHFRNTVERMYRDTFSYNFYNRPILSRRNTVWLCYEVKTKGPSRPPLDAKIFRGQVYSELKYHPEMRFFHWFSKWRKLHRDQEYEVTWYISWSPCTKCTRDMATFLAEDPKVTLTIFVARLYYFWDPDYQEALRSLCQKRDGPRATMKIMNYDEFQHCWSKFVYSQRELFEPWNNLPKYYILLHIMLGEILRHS
Description: as §1

COc1ccccc1NC(=O)c1ccccc1Sc1ccc([N+](=O)[O-])cc1 [RN-18]
IC50 (Vif): 4.5 µM

Vif-CBFβ-ELOB-ELOC (VCBC) complex (from UniProt P12504;Q13951;Q15370;Q15369)
Kd [1]: 0.00071 µM

O=C(O)Cn1c2c(c3c1=C(c1ccc(O)c(O)c1)C(=O)c1cc(O)c(OS(=O)(=O)O)cc1-3)-c1cc(O)c(O)cc1C(=O)C=2c1ccc(O)c(O)c1 [Baculiferin M]
IC50, HIV-1 replication (HIV-1): 0.5 to 7 µg/mL

C/C(=C/C(=O)c1cccnc1)Nc1ccc(O)cc1 [N.41]
IC50 [2]: 2.18 µM

O=C(O)Cn1c2c(c3c1=C(c1ccc(O)c(O)c1)C(=O)c1cc(O)c(O)cc1-3)-c1cc(O)c(O)cc1C(=O)C=2c1ccc(O)c(O)c1 [Baculiferin L]
IC50, HIV-1 replication (HIV-1): 0.5 to 7 µg/mL

CCCCn1c(SCc2c(C)noc2C)nc2cc(S(N)(=O)=O)ccc21 [MM-2]
relative response value of binding to rVif (rVif): 130.4 RU | Kd (A3G-sNTD): 19.9 ± 11 µM
